These are literature values, as cited in patent US20060147533A1, “Antimicrobial biomaterial for blood bags” (priority 2004, published 2006).

Each structure is given as a SMILES string.

The conditions of the series: humans; recoveries reported following ingestion of higher doses.

For `O=[N+]([O-])[O-].[Ag+]` [silver nitrate], the estimated fatal dose was 10 grams.
